Data taken from PMC6354011 (Scientific Reports, 2019).
Values joined by “and” are separate entries in the source; they are usually repeats but may differ in a detail not shown here. Identical values can stand only once. Like-named read-outs stand apart in the source and are kept apart here.

Key:
[1] = molecular target: T1, equine serum butyrylcholinesterase (BChE, EC 3.1.1.8) (Equus caballus, UniProt P81908); experiment: biochemical; type: biochemical; conditions: for BChE % inhibition: single read
T1 construct: equine serum butyrylcholinesterase (BChE, EC 3.1.1.8); purchased Sigma-Aldrich (USA); host or cells: equine serum
T1 sequence (P81908 whole entry): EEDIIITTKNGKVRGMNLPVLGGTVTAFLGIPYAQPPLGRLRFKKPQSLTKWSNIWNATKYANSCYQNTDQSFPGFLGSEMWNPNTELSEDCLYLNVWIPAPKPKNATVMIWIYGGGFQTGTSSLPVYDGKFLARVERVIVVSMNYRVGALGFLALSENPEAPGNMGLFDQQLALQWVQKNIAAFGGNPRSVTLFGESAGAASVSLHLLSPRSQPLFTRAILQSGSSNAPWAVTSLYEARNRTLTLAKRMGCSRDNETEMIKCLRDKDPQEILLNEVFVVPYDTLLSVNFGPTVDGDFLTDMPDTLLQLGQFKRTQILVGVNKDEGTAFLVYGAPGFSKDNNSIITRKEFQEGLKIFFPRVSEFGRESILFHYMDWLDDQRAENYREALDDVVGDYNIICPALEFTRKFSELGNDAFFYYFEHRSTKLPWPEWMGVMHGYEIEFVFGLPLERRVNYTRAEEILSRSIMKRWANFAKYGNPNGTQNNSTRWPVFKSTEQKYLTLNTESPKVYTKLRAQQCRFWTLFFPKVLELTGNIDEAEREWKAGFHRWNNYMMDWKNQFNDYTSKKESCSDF
Excerpt: (§1) Ellman’s colorimetric method with minor modification was employed in the determination of AChE and BChE inhibitory activities. Electric eel acetylcholinesterase (AChE, EC 3.1.1.7), equine serum butyrylcholinesterase (BChE, EC 3.1.1.8), 5,5′-Dithiobis(2-nitrobenzoic acid) (DTNB) and sodium phosphate dibasic (Na2HPO4) were purchased from Sigma-Aldrich (USA). S-butyrylthiocholine chloride (BTCC) from Sigma-Aldrich (Switzerland), acetylthiocholine iodide (ATCI) from Sigma-Aldrich (United Kingdom) and sodium phosphate monobasic (NaH2PO4) from Sigma-Aldrich (Germany) were purchased. […] Ethanol was used to replace the sample as a control in this assay.

[2] = molecular target: T2, Electric eel acetylcholinesterase (AChE, EC 3.1.1.7) (Electrophorus electricus, UniProt O42275); experiment: biochemical; conditions: mean ± SD, n = 3; read-out: IC50 (µM) AChE
T2 construct: purchased Sigma-Aldrich (USA)
T2 sequence (O42275 24-633): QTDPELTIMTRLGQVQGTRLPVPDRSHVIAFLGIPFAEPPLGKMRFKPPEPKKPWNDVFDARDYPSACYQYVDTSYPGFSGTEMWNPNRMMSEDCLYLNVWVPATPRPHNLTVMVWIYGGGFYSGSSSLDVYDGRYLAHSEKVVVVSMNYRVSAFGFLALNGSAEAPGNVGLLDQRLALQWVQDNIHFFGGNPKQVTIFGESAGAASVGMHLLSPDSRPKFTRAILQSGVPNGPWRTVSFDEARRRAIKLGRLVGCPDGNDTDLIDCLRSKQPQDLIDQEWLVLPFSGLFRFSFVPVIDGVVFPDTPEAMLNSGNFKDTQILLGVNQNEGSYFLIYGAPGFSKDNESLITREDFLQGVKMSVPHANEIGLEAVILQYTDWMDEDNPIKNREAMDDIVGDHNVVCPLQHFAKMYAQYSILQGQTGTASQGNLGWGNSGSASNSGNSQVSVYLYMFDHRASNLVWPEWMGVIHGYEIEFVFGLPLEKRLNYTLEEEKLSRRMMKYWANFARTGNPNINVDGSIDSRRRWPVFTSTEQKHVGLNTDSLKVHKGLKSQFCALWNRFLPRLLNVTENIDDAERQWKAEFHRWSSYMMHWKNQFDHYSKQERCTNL
Excerpt: as §1

[3] = mean ± SD, n = 3, read-out: IC50 (µM) BChE

**Q.** For `Cc1cccn2cc(-c3ccc(Cl)cc3)nc12` [Compound 2n, 2-(4-chlorophenyl)-8-methylimidazo[1,2-a]pyridine], which IC50 ([1]; N = 3, unit not given (µg/mL scale), read-out: BChE IC50, Tukey HSD homogeneous subsets (group mean) (converted)) is on record?
**A.** The IC50 was 737 µM.

**Q.** And the BChE % inhibition ([1]; conc 25 (µg/mL))?
**A.** Its BChE % inhibition is 10.83% and 20.0586% and 13.47%.

**Q.** What about the BChE % inhibition ([1]; conc 100 (µg/mL)) of the same compound?
**A.** Its BChE % inhibition is 42.02% and 27.53% and 43.78%.

**Q.** And the BChE % inhibition ([1]; conc 150 (µg/mL))?
**A.** Its BChE % inhibition is 45.53% and 45.97% and 50.81%.

**Q.** What about the BChE % inhibition ([1]; conc 200 (µg/mL)) of the same compound?
**A.** Its BChE % inhibition is 56.52% and 54.76% and 59.15%.

**Q.** What about the BChE % inhibition ([1]; conc 250 (µg/mL)) of the same compound?
**A.** Its BChE % inhibition is 63.98% and 61.79%.

**Q.** And the IC50 [1, 3]?
**A.** Its IC50 is 722 ± 48 µM.

**Q.** What about the IC50 [2] of the same compound?
**A.** Its IC50 is > 2000 µM.

**Q.** For `Cc1cccn2cc(-c3ccc(Br)cc3)nc12` [Compound 2o, 2-(4-bromophenyl)-8-methylimidazo[1,2-a]pyridine], which IC50 [1, 3] is on record?
**A.** Its IC50 is > 2000 µM.

**Q.** What about the IC50 [2] of the same compound?
**A.** Its IC50 is > 2000 µM.
